Data from US20240287007A1, “N-(1,3,4-OXADIAZOL-2-YL)PHENYLCARBOXAMIDES AS HERBICIDES” (BAYER AKTIENGESELLSCHAFT, priority 2021, published 2024).

Legend:
Format in all cases: in vivo
[1] = system: ABUTH (Abutylon threophrasti); test: Post-emergence herbicidal action against ABUTH; details: visual assessment after about 3 weeks
Procedure: (§1) Seeds of monocotyledonous and dicotyledonous weed and crop plants are laid out in sandy loam soil in wood-fiber pots, covered with soil and cultivated in a greenhouse under good growth conditions. 2 to 3 weeks after sowing, the trial plants are treated at the one-leaf stage. The compounds of the invention, formulated in the form of wettable powders (WP) or as emulsion concentrates (EC), are then sprayed onto the green parts of the plants as aqueous suspension or emulsion at a water application rate equating to 600 to 800 l/ha with addition of 0.2% wetting agent. After the test plants have been left to stand in the greenhouse under optimal growth conditions for about 3 weeks, the action of the preparations is assessed visually in comparison to untreated controls (herbicidal action in percent (%): 100% activity=the plants have died, 0% activity=like control plants).

[2] = system: AMARE (Amaranthus retroflexus); test: Post-emergence herbicidal action against AMARE; details: visual assessment after about 3 weeks
Procedure: as §1

[3] = system: DIGSA (Digitaria sanguinalis); test: Post-emergence herbicidal action against DIGSA; details: visual assessment after about 3 weeks
Procedure: as §1

LOLRI (Lolium rigidum) [4] = test: Post-emergence herbicidal action against LOLRI; details: visual assessment after about 3 weeks
Procedure: as §1

[5] = system: MATIN (Matricaria inodora); test: Post-emergence herbicidal action against MATIN; details: visual assessment after about 3 weeks
Procedure: as §1

[6] = system: PHBPU (Pharbitis purpurea); test: Post-emergence herbicidal action against PHBPU; details: visual assessment after about 3 weeks
Procedure: as §1

[7] = system: POLCO (Polygonum convolvulus); test: Post-emergence herbicidal action against POLCO; details: 80 g/ha, visual assessment after about 3 weeks
Procedure: as §1

SETVI (Setaria viridis) [8] = test: Post-emergence herbicidal action against SETVI; details: visual assessment after about 3 weeks
Procedure: as §1

VERPE (Veronica persica) [9] = test: Post-emergence herbicidal action against VERPE; details: visual assessment after about 3 weeks
Procedure: as §1

VIOTR (Viola tricolor) [10] = test: Post-emergence herbicidal action against VIOTR; details: visual assessment after about 3 weeks
Procedure: as §1

KCHSC (Kochia scoparia) [11] = test: Post-emergence herbicidal action against KCHSC; details: visual assessment after about 3 weeks
Procedure: as §1

AVEFA (Avena fatua) [12] = test: Post-emergence herbicidal action against AVEFA; details: visual assessment after about 3 weeks
Procedure: as §1

[13] = system: ECHCG (Echinochloa crus-galli); test: Post-emergence herbicidal action against ECHCG; details: visual assessment after about 3 weeks
Procedure: as §1

[14] = system: ABUTH (Abutylon threophrasti); test: Pre-emergence herbicidal effect against ABUTH; details: scored visually after 3 weeks
Excerpt: (§2) Seeds of monocotyledonous and dicotyledonous weed plants and crop plants are laid out in sandy loam soil in wood-fiber pots and covered with soil. The compounds of the invention, formulated in the form of wettable powders (WP) or as emulsion concentrates (EC), are then applied to the surface of the covering soil as aqueous suspension or emulsion at a water application rate equating to 600 to 800 l/ha with addition of 0.2% wetting agent. After the treatment, the pots are placed in a greenhouse and kept under good growth conditions for the trial plants. The damage to the test plants is scored visually after a test period of 3 weeks by comparison with untreated controls (herbicidal activity in percent (%): 100% activity=the plants have died, 0% activity=like control plants).

[15] = system: ALOMY (Alopecurus myosuroides); test: Pre-emergence herbicidal effect against ALOMY; details: 80 g/ha, scored visually after 3 weeks
Excerpt: as §2

[16] = system: AMARE (Amaranthus retroflexus); test: Pre-emergence herbicidal effect against AMARE; details: scored visually after 3 weeks
Excerpt: as §2

AVEFA (Avena fatua) [17] = test: Pre-emergence herbicidal effect against AVEFA; details: 80 g/ha, scored visually after 3 weeks
Excerpt: as §2

[18] = system: DIGSA (Digitaria sanguinalis); test: Pre-emergence herbicidal effect against DIGSA; details: scored visually after 3 weeks
Excerpt: as §2

[19] = system: ECHCG (Echinochloa crus-galli); test: Pre-emergence herbicidal effect against ECHCG; details: scored visually after 3 weeks
Excerpt: as §2

[20] = system: MATIN (Matricaria inodora); test: Pre-emergence herbicidal effect against MATIN; details: scored visually after 3 weeks
Excerpt: as §2

[21] = system: PHBPU (Pharbitis purpurea); test: Pre-emergence herbicidal effect against PHBPU; details: 80 g/ha, scored visually after 3 weeks
Excerpt: as §2

[22] = system: POLCO (Polygonum convolvulus); test: Pre-emergence herbicidal effect against POLCO; details: 80 g/ha, scored visually after 3 weeks
Excerpt: as §2

SETVI (Setaria viridis) [23] = test: Pre-emergence herbicidal effect against SETVI; details: scored visually after 3 weeks
Excerpt: as §2

VERPE (Veronica persica) [24] = test: Pre-emergence herbicidal effect against VERPE; details: scored visually after 3 weeks
Excerpt: as §2

VIOTR (Viola tricolor) [25] = test: Pre-emergence herbicidal effect against VIOTR; details: scored visually after 3 weeks
Excerpt: as §2

KCHSC (Kochia scoparia) [26] = test: Pre-emergence herbicidal effect against KCHSC; details: scored visually after 3 weeks
Excerpt: as §2

LOLRI (Lolium rigidum) [27] = test: Pre-emergence herbicidal effect against LOLRI; details: 80 g/ha, scored visually after 3 weeks
Excerpt: as §2

Structure (SMILES): C[S+]([O-])c1c(OC(F)F)ccc(C(=O)Nc2nnco2)c1Cl (racemic) [Example 1-22]
- Post-emergence effect at 20 g/ha against ABUTH in % [1]: 100%
- Post-emergence effect at 80 g/ha against ABUTH in % [1]: 100%
- Post-emergence effect at 20 g/ha against AMARE in % [2]: 100%
- Post-emergence effect at 80 g/ha against AMARE in % [2]: 100%
- Post-emergence effect at 20 g/ha against DIGSA in % [3]: 100%
- Post-emergence effect at 80 g/ha against DIGSA in % [3]: 100%
- Post-emergence effect at 80 g/ha against LOLRI in % (LOLRI (Lolium rigidum) [4]): 90%
- Post-emergence effect at 20 g/ha against MATIN in % [5]: 100%
- Post-emergence effect at 80 g/ha against MATIN in % [5]: 100%
- Post-emergence effect at 80 g/ha against PHBPU in % [6]: 100%
- Post-emergence effect at 80 g/ha against POLCO in % [7]: 90%
- Post-emergence effect at 20 g/ha against SETVI in % (SETVI (Setaria viridis) [8]): 100%
- Post-emergence effect at 80 g/ha against SETVI in % (SETVI (Setaria viridis) [8]): 100%
- Post-emergence effect at 20 g/ha against VERPE in % (VERPE (Veronica persica) [9]): 90%
- Post-emergence effect at 80 g/ha against VERPE in % (VERPE (Veronica persica) [9]): 100%
- Post-emergence effect at 20 g/ha against VIOTR in % (VIOTR (Viola tricolor) [10]): 100%
- Post-emergence effect at 80 g/ha against VIOTR in % (VIOTR (Viola tricolor) [10]): 100%
- Post-emergence effect at 20 g/ha against KCHSC in % (KCHSC (Kochia scoparia) [11]): 100%
- Post-emergence effect at 80 g/ha against KCHSC in % (KCHSC (Kochia scoparia) [11]): 100%
- Post-emergence effect at 20 g/ha against A VEFA in % (AVEFA (Avena fatua) [12]; 20 g/ha): 90%
- Post-emergence effect at 80 g/ha against AVEFA in % (AVEFA (Avena fatua) [12]): 100%
- Post-emergence effect at 20 g/ha against ECHCG in % [13]: 100%
- Post-emergence effect at 80 g/ha against ECHCG in % [13]: 100%
- Pre-emergence effect at 20 g/ha against ABUTH in % [14]: 80%
- Pre-emergence effect at 80 g/ha against ABUTH in % [14]: 100%
- Pre-emergence effect at 80 g/ha against ALOMY in % [15]: 80%
- Pre-emergence effect at 20 g/ha against AMARE in % [16]: 100%
- Pre-emergence effect at 80 g/ha against AMARE in % [16]: 100%
- Pre-emergence effect at 80 g/ha against A VEFA in % (AVEFA (Avena fatua) [17]): 80%
- Pre-emergence effect at 20 g/ha against DIGSA in % [18]: 100%
- Pre-emergence effect at 80 g/ha against DIGSA in % [18]: 100%
- Pre-emergence effect at 20 g/ha against ECHCG in % [19]: 90%
- Pre-emergence effect at 80 g/ha against ECHCG in % [19]: 100%
- Pre-emergence effect at 20 g/ha against MATIN in % [20]: 100%
- Pre-emergence effect at 80 g/ha against MATIN in % [20]: 100%
- Pre-emergence effect at 80 g/ha against PHBPU in % [21]: 80%
- Pre-emergence effect at 80 g/ha against POLCO in % [22]: 90%
- Pre-emergence effect at 20 g/ha against SETVI in % (SETVI (Setaria viridis) [23]): 90%
- Pre-emergence effect at 80 g/ha against SETVI in % (SETVI (Setaria viridis) [23]): 100%
- Pre-emergence effect at 20 g/ha against VERPE in % (VERPE (Veronica persica) [24]): 80%
- Pre-emergence effect at 80 g/ha against VERPE in % (VERPE (Veronica persica) [24]): 90%
- Pre-emergence effect at 20 g/ha against VIOTR in % (VIOTR (Viola tricolor) [25]): 100%
- Pre-emergence effect at 80 g/ha against VIOTR in % (VIOTR (Viola tricolor) [25]): 100%
- Pre-emergence effect at 20 g/ha against KCHSC in % (KCHSC (Kochia scoparia) [26]): 100%
- Pre-emergence effect at 80 g/ha against KCHSC in % (KCHSC (Kochia scoparia) [26]): 100%

Structure (SMILES): CS(=O)(=O)c1c(OC(F)F)ccc(C(=O)Nc2nnco2)c1Cl [Example 1-25, 2-chloro-4-(difluoromethoxy)-3-(methylsulfonyl)-N-(1,3,4-oxadiazol-2-yl)benzamide]
- Post-emergence effect at 20 g/ha against ABUTH in % [1]: 100%
- Post-emergence effect at 80 g/ha against ABUTH in % [1]: 100%
- Post-emergence effect at 20 g/ha against AMARE in % [2]: 100%
- Post-emergence effect at 80 g/ha against AMARE in % [2]: 100%
- Post-emergence effect at 20 g/ha against DIGSA in % [3]: 100%
- Post-emergence effect at 80 g/ha against DIGSA in % [3]: 100%
- Post-emergence effect at 20 g/ha against MATIN in % [5]: 100%
- Post-emergence effect at 80 g/ha against MATIN in % [5]: 100%
- Post-emergence effect at 20 g/ha against PHBPU in % ([6]; 20 g/ha): 100%
- Post-emergence effect at 80 g/ha against PHBPU in % [6]: 100%
- Post-emergence effect at 20 g/ha against SETVI in % (SETVI (Setaria viridis) [8]): 100%
- Post-emergence effect at 80 g/ha against SETVI in % (SETVI (Setaria viridis) [8]): 100%
- Post-emergence effect at 20 g/ha against VERPE in % (VERPE (Veronica persica) [9]): 90%
- Post-emergence effect at 80 g/ha against VERPE in % (VERPE (Veronica persica) [9]): 100%
- Post-emergence effect at 20 g/ha against VIOTR in % (VIOTR (Viola tricolor) [10]): 100%
- Post-emergence effect at 80 g/ha against VIOTR in % (VIOTR (Viola tricolor) [10]): 100%
- Post-emergence effect at 20 g/ha against KCHSC in % (KCHSC (Kochia scoparia) [11]): 100%
- Post-emergence effect at 80 g/ha against KCHSC in % (KCHSC (Kochia scoparia) [11]): 100%
- Post-emergence effect at 80 g/ha against AVEFA in % (AVEFA (Avena fatua) [12]): 100%
- Post-emergence effect at 20 g/ha against ECHCG in % [13]: 80%
- Post-emergence effect at 80 g/ha against ECHCG in % [13]: 100%
- Pre-emergence effect at 20 g/ha against ABUTH in % [14]: 100%
- Pre-emergence effect at 80 g/ha against ABUTH in % [14]: 100%
- Pre-emergence effect at 20 g/ha against AMARE in % [16]: 100%
- Pre-emergence effect at 80 g/ha against AMARE in % [16]: 100%
- Pre-emergence effect at 80 g/ha against A VEFA in % (AVEFA (Avena fatua) [17]): 90%
- Pre-emergence effect at 20 g/ha against DIGSA in % [18]: 100%
- Pre-emergence effect at 80 g/ha against DIGSA in % [18]: 100%
- Pre-emergence effect at 20 g/ha against ECHCG in % [19]: 100%
- Pre-emergence effect at 80 g/ha against ECHCG in % [19]: 100%
- Pre-emergence effect at 80 g/ha against LOLRI in % (LOLRI (Lolium rigidum) [27]): 90%
- Pre-emergence effect at 20 g/ha against MATIN in % [20]: 100%
- Pre-emergence effect at 80 g/ha against MATIN in % [20]: 100%
- Pre-emergence effect at 80 g/ha against PHBPU in % [21]: 90%
- Pre-emergence effect at 20 g/ha against SETVI in % (SETVI (Setaria viridis) [23]): 100%
- Pre-emergence effect at 80 g/ha against SETVI in % (SETVI (Setaria viridis) [23]): 100%
- Pre-emergence effect at 20 g/ha against VERPE in % (VERPE (Veronica persica) [24]): 90%
- Pre-emergence effect at 80 g/ha against VERPE in % (VERPE (Veronica persica) [24]): 100%
- Pre-emergence effect at 20 g/ha against VIOTR in % (VIOTR (Viola tricolor) [25]): 100%
- Pre-emergence effect at 80 g/ha against VIOTR in % (VIOTR (Viola tricolor) [25]): 100%
- Pre-emergence effect at 20 g/ha against KCHSC in % (KCHSC (Kochia scoparia) [26]): 100%
- Pre-emergence effect at 80 g/ha against KCHSC in % (KCHSC (Kochia scoparia) [26]): 100%
